Measurements reported in ChEMBL document CHEMBL1201862, “PubChem BioAssay data set” (2004).
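Test compounds were applied to cells in 96-well plates for 48 hours at 5 doses. The concentration for 50% growth inhibition is given as GI50.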 Activity calls are given as the source filed them. Cut-off read from the data, not from the text of the source: active = GI50 up to about 1.1 µM and inactive = higher.

Assays:
Test in all cases: NCI anticancer screen, dose series, 48 h
UACC-62 = tested on: UACC-62
SNB-75 = tested on: SNB-75
SK-MEL-2 = tested on: SK-MEL-2
SW-620 = tested on: SW-620
UO-31 = tested on: UO-31
HOP-62 = tested on: HOP-62
HT-29 = tested on: HT-29
MDA-N = tested on: MDA-N
RXF 393 = tested on: RXF 393
UACC-257 = tested on: UACC-257
DU-145 = tested on: DU-145
HCT-116 = tested on: HCT-116
COLO 205 = tested on: COLO 205
OVCAR-8 = tested on: OVCAR-8
CAKI-1 = tested on: CAKI-1
SF-539 = tested on: SF-539
NCI/ADR-RES = tested on: NCI/ADR-RES
HCT-15 = tested on: HCT-15
BT-549 = tested on: BT-549
OVCAR-3 = tested on: OVCAR-3
SN12C = tested on: SN12C
PC-3 = tested on: PC-3
MDA-MB-435 = tested on: MDA-MB-435
786-0 = tested on: 786-0
ACHN = tested on: ACHN
A498 = tested on: A498
KM12 = tested on: KM12
HOP-92 = tested on: HOP-92
HCC 2998 = tested on: HCC 2998
M14 = tested on: M14
LOX IMVI = tested on: LOX IMVI
OVCAR-4 = tested on: OVCAR-4
T47D = tested on: T47D
SK-MEL-28 = tested on: SK-MEL-28
SK-MEL-5 = tested on: SK-MEL-5
CCRF-CEM = tested on: CCRF-CEM
Malme-3M = tested on: Malme-3M
NCI-H522 = tested on: NCI-H522
NCI-H23 = tested on: NCI-H23
IGROV-1 = tested on: IGROV-1
NCI-H226 = tested on: NCI-H226
SK-OV-3 = tested on: SK-OV-3
NCI-H460 = tested on: NCI-H460
MOLT-4 = tested on: MOLT-4
SNB-19 = tested on: SNB-19
OVCAR-5 = tested on: OVCAR-5
HL-60 = tested on: HL-60
SR = tested on: SR
MDA-MB-231 = tested on: MDA-MB-231
Hs-578T = tested on: Hs-578T
RPMI-8226 = tested on: RPMI-8226
TK-10 = tested on: TK-10
EKVX = tested on: EKVX
K562 = tested on: K562
A549 = tested on: A549
MCF7 = tested on: MCF7
SF-268 = tested on: SF-268
SF-295 = tested on: SF-295
U-251 = tested on: U-251

Measured: GI50

O=C(O)c1cc(C(=O)O)nc(C(=O)O)c1
> 100 µM: HCT-15
inactive: UACC-62 > 100 µM | SNB-75 > 100 µM | SK-MEL-2 > 100 µM | SW-620 > 100 µM | UO-31 > 100 µM | HOP-62 > 100 µM | HT-29 > 100 µM | MDA-N > 100 µM | RXF 393 > 100 µM | UACC-257 > 100 µM | DU-145 > 100 µM | HCT-116 > 100 µM | COLO 205 > 100 µM | OVCAR-8 > 100 µM | CAKI-1 > 100 µM | SF-539 > 100 µM | NCI/ADR-RES > 100 µM | BT-549 > 100 µM | OVCAR-3 > 100 µM | SN12C > 100 µM | PC-3 > 100 µM | MDA-MB-435 > 100 µM | 786-0 > 100 µM | ACHN > 100 µM | A498 > 100 µM | KM12 > 100 µM | HOP-92 > 100 µM | HCC 2998 > 100 µM | M14 > 100 µM | LOX IMVI > 100 µM | OVCAR-4 > 100 µM | T47D > 100 µM | SK-MEL-28 > 100 µM | SK-MEL-5 > 100 µM | CCRF-CEM 42.7 µM | Malme-3M > 100 µM | NCI-H522 > 100 µM | NCI-H23 > 100 µM | IGROV-1 > 100 µM | NCI-H226 > 100 µM | SK-OV-3 > 100 µM | NCI-H460 > 100 µM | MOLT-4 > 100 µM | SNB-19 > 100 µM | OVCAR-5 > 100 µM | HL-60 > 100 µM | SR > 100 µM | MDA-MB-231 > 100 µM | Hs-578T > 100 µM | RPMI-8226 > 100 µM | TK-10 > 100 µM | EKVX > 100 µM | K562 > 100 µM | A549 > 100 µM | MCF7 > 100 µM | SF-268 > 100 µM | SF-295 > 100 µM | U-251 > 100 µM

Cc1c(C)c(C)c(-n2c(=O)n(C)c(=O)n2-c2cc(C(C)(C)C)cc(C(C)(C)C)c2O)c(C)c1C
8.43 µM: HCT-15
inactive: UACC-62 11.1 µM | SNB-75 4.14 µM | SK-MEL-2 6.47 µM | SW-620 13.6 µM | UO-31 3.08 µM | HOP-62 14.4 µM | HT-29 3.64 µM | MDA-N 10.5 µM | RXF 393 2.97 µM | UACC-257 9.66 µM | DU-145 12.7 µM | HCT-116 5.79 µM | COLO 205 7.19 µM | OVCAR-8 10.4 µM | CAKI-1 11.7 µM | SF-539 10.5 µM | NCI/ADR-RES 8.38 µM | BT-549 13.5 µM | OVCAR-3 4.68 µM | SN12C 9.44 µM | PC-3 3.03 µM | MDA-MB-435 11.9 µM | 786-0 10.4 µM | ACHN 12.2 µM | A498 13.1 µM | KM12 11.8 µM | HOP-92 5.5 µM | HCC 2998 9.93 µM | M14 10.2 µM | LOX IMVI 13.6 µM | OVCAR-4 7.28 µM | T47D 4.89 µM | SK-MEL-28 13.7 µM | SK-MEL-5 6.21 µM | CCRF-CEM 8.13 µM | Malme-3M 11.9 µM | NCI-H522 4.54 µM | NCI-H23 7.91 µM | IGROV-1 10.1 µM | NCI-H226 8.32 µM | SK-OV-3 12.4 µM | NCI-H460 11.4 µM | MOLT-4 4.18 µM | SNB-19 5.74 µM | OVCAR-5 13.3 µM | HL-60 3.04 µM | SR 3.91 µM | MDA-MB-231 3.91 µM | Hs-578T 10.4 µM | RPMI-8226 4.63 µM | TK-10 10.1 µM | EKVX 10.5 µM | K562 6.21 µM | A549 5.66 µM | MCF7 4.06 µM | SF-268 12.4 µM | SF-295 8.99 µM | U-251 6.95 µM
